Key:
[1] = molecular target: TOP2A (Homo sapiens, UniProt P11388); experiment: in vitro TOP2A kDNA decatenation assay; format: biochemical
[2] = molecular target: MYC (Homo sapiens, UniProt P01106); experiment: biochemical
MYC, sequence (P01106 368-454 limits assumed): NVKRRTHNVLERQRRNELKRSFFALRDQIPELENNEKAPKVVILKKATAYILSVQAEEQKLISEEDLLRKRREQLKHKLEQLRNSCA

TOP2A, sequence (P11388 whole entry): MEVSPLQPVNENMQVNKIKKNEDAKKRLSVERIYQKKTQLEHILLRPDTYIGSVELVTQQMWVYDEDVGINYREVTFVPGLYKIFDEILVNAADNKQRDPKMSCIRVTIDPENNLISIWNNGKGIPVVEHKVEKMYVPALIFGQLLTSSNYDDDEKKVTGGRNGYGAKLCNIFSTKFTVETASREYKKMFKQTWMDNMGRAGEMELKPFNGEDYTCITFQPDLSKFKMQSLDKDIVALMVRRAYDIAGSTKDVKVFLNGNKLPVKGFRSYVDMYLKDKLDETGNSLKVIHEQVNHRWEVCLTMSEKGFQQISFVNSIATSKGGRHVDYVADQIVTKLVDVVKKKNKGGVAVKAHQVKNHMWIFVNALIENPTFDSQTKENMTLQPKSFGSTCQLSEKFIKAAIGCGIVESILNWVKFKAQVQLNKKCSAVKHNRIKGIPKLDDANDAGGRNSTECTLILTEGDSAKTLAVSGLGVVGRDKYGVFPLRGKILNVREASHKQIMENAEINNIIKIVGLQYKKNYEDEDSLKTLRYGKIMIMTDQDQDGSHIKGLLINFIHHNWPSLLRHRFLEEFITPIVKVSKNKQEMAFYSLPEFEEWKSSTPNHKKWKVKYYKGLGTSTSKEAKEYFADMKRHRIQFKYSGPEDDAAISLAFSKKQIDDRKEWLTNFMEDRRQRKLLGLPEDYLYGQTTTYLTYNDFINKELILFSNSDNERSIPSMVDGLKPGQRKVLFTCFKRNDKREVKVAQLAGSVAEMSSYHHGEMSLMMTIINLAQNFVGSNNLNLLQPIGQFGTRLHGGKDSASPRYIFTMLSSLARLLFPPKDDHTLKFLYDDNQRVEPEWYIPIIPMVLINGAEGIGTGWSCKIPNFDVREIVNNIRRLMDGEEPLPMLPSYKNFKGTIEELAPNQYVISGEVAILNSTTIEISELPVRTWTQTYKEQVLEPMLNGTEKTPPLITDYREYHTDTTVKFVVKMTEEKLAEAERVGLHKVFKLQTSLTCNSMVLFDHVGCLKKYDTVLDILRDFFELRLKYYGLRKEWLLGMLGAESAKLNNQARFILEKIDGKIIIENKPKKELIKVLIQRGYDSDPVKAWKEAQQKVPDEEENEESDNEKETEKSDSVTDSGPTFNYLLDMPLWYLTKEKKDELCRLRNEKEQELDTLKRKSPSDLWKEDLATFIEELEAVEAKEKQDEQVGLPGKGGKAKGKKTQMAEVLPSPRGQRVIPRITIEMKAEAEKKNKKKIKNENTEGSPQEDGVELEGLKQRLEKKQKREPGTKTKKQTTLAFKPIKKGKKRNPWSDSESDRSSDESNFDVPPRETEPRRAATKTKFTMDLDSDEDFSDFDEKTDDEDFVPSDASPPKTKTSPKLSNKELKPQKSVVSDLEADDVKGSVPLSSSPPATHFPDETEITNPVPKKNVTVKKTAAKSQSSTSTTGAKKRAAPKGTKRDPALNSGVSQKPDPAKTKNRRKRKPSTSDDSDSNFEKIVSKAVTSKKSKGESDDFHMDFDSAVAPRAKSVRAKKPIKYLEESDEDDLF

Compound | in vitro TOP2A kDNA decatenation assay [1] | Kd [2] [µM]
CCN(CC)CC[n+]1ccc2c(C)c3[nH]c4ccccc4c3c(C)c2c1 [MYCMI-7, 2-(5,11-Dimethyl-6H-25-pyrido[4,3-b]carbazol-2-yl)-N,N-diethylethanamine acetate] | > 10 µmol/L | ~4
COc1cccc2c1C(=O)c1c(O)c3c(c(O)c1C2=O)C[C@@](O)(C(=O)CO)C[C@@H]3O[C@H]1C[C@H](N)[C@H](O)[C@H](C)O1 [doxorubicin, reference compound] | ~ 3 μmol/L | –

Source: paper PMC9980915, “MYCMI-7: A Small MYC-Binding Compound that Inhibits MYC: MAX Interaction and Tumor Growth in a MYC-Dependent Manner” (Cancer Research Communications, 2022)
